Source: patent US20090209460A1, “COMPOSITIONS AND METHODS FOR TREATING OBESITY AND RELATED METABOLIC DISORDERS” (Amylin Pharmaceuticals, Inc., priority 2005, published 2009)
Where two headings read alike, the source gives them in different places. Residues, ends and D or L forms follow the SMILES beside them.

Key:
NIH/Swiss mice = assay: acute food intake assay, lean overnight-fasted NIH/Swiss mice, intraperitoneal injection; assay type: in vivo, mouse; conditions: for Food Intake Inhibition: mouse assay, dose of 200 mg/kg, measured at 60 minutes; for FI (60′, 200): food intake, % change relative to control, 60 min
Procedure: The effect of NMX Peptides, FNX Peptides or NMX Receptor agonists on food intake when systemically administered was investigated using an acute food intake assay. This assay measured food consumption in lean subjects. Lean, group-housed, overnight-fasted NIH/Swiss mice. All in vivo tests were performed with peripheral injections of peptide. […] The dose-response data are presented herein. The protocol is described below. Female NIH/Swiss mice (8-24 weeks old) were group housed with a 12:12 hour light:dark cycle, with lights on at 0300. Water and a standard pelleted mouse chow diet are available ad libitum, except as noted. Animals are fasted starting at approximately 1530 hrs, 1 day prior to experiment. At time=0 min, all animals are given an intraperitoneal injection of vehicle or polypeptide in a volume of 200 uL/mouse and immediately given a pre-weighed amount (10-15 g) of the standard chow. Food is removed and weighed at 30, 60, and 120 minutes to determine the amount of food consumed. The effects of treatment on food intake are expressed as % change relative to control.

[1] = brush border membrane (BBM) stability assay; assay type: in vitro ADME, human; conditions: brush border membrane extract (e.g. kidney)
Procedure: Some exemplary NMX Peptides and FNX Peptides were tested for stability in a brush border membrane (BBM) assay as described herein. To determine the enzymatic stability of peptide hormones peptides are incubated with a preparation of human brush border membranes extract (e.g., kidney), and the stability of the peptide is determined by measuring concentration of the intact peptide at specific intervals. The brush border membrane extract contains dipeptidyl peptidase IV (DPP-IV), neutral endopeptidases, peptidyl-dipeptidase A, carboxypeptidases and aminopeptidases. These are the primary enzymes that degrade peptides in vivo and are found in the kidneys, liver, lungs and pancreas. Resistance against these human proteases would increase peptide half-life. In the BBM assay test peptide was subjected to digestion over a period of five (5) hours with human brush border membrane extracts, e.g. kidney, at 37° C. At desired timepoints digestion was stopped by addition of quench solution, typically 50% ACN, 1% FA. After centrifugation to remove membrane debris, supernatant was subjected to mass spectrometry using a selected ion scan for the intact molecule of interest. Values are expressed as a percent of stable. A value of at least 80 or greater is regarded as an extremely stable molecule. A value of at least 70 or greater is a molecule with significant stability.

[2] = percent compound remaining after a 5 hour incubation, human brush border membrane assay, read-out: hBBM
[3] = percent of stable, human brush border membrane extracts, five hours, 37° C., read-out: BBM

CC(C)C[C@H](NC(=O)[C@H](CCCCN)NC(=O)[C@H](CCC(N)=O)NC(=O)[C@@H](NC(=O)[C@H](CCCCN)NC(=O)[C@H](CO)NC(=O)[C@H](Cc1ccc(O)cc1)NC(=O)[C@H](Cc1c[nH]cn1)NC(=O)[C@H](Cc1ccccc1)NC(=O)[C@H](CC(C)C)NC(=O)[C@@H](N)Cc1ccccc1)[C@@H](C)O)C(=O)NCC(=O)N[C@@H](CCCCN)C(=O)N[C@@H](CO)C(=O)N[C@@H](CC(N)=O)C(=O)N[C@@H](CCC(=O)O)C(=O)N[C@@H](CCC(=O)O)C(=O)N[C@@H](CC(C)C)C(=O)N[C@@H](CCC(N)=O)C(=O)N[C@@H](CO)C(=O)N1CCC[C@H]1C(=O)N[C@@H](CO)C(=O)N[C@@H](CCCNC(=N)N)C(=O)NCC(=O)N[C@@H](Cc1ccc(O)cc1)C(=O)N[C@@H](Cc1ccccc1)C(=O)N[C@@H](CC(C)C)C(=O)N[C@@H](Cc1ccccc1)C(=O)N[C@@H](CCCNC(=N)N)C(=O)N1CCC[C@H]1C(=O)N[C@@H](CCCNC(=N)N)C(=O)N[C@@H](CC(N)=O)C(N)=O (H-FLFHYSKTQKLGKSNEELQSPSRGYFLFRPRN-NH2; N-terminus assumed)
Food Intake Inhibition (NIH/Swiss mice): −79%
remaining at 5 h [1, 2]: 77%

CC(C)C[C@H](NC(=O)[C@H](CCCCN)NC(=O)[C@H](CCC(N)=O)NC(=O)[C@@H](NC(=O)[C@H](CCCCN)NC(=O)[C@H](CO)NC(=O)[C@@H](N)Cc1ccc(O)cc1)[C@@H](C)O)C(=O)NCC(=O)N[C@@H](CCCCN)C(=O)N[C@@H](CO)C(=O)N[C@@H](CC(N)=O)C(=O)N[C@@H](CCC(=O)O)C(=O)N[C@@H](CCC(=O)O)C(=O)N[C@@H](CC(C)C)C(=O)N[C@@H](CCC(N)=O)C(=O)N[C@@H](CO)C(=O)N1CCC[C@H]1C(=O)N[C@@H](CO)C(=O)N[C@@H](CCCNC(=N)N)C(=O)NCC(=O)N[C@@H](Cc1ccc(O)cc1)C(=O)N[C@@H](Cc1ccccc1)C(=O)N[C@@H](CC(C)C)C(=O)N[C@@H](Cc1ccccc1)C(=O)N[C@@H](CCCNC(=N)N)C(=O)N1CCC[C@H]1C(=O)N[C@@H](CCCNC(=N)N)C(=O)N[C@@H](CC(N)=O)C(N)=O (H-YSKTQKLGKSNEELQSPSRGYFLFRPRN-NH2; N-terminus assumed)
Food Intake Inhibition (NIH/Swiss mice): −69%
remaining at 5 h [1, 2]: 67%

CC(C)C[C@H](NC(=O)[C@H](CCCCN)NC(=O)[C@H](CCC(N)=O)NC(=O)[C@@H](NC(=O)[C@H](CCCCN)NC(=O)[C@H](CO)NC(=O)[C@H](Cc1ccc(O)cc1)NC(=O)[C@H](Cc1c[nH]cn1)NC(=O)[C@H](Cc1ccccc1)NC(=O)[C@H](CC(C)C)NC(=O)[C@@H](N)Cc1ccccc1)[C@@H](C)O)C(=O)NCC(=O)N[C@@H](CCCCN)C(=O)N[C@@H](CO)C(=O)N[C@@H](CC(N)=O)C(=O)N[C@H](C(=O)N[C@H](C(=O)N[C@@H](CCC(=O)O)C(=O)N[C@@H](CCC(=O)O)C(=O)N[C@@H](CC(C)C)C(=O)N[C@@H](CCC(N)=O)C(=O)N[C@@H](CO)C(=O)N1CCC[C@H]1C(=O)N[C@@H](Cc1ccccc1)C(=O)N[C@@H](C)C(=O)N[C@@H](CO)C(=O)N[C@@H](CCC(N)=O)C(=O)N[C@@H](CO)C(=O)N[C@@H](CCCNC(=N)N)C(=O)NCC(=O)N[C@@H](Cc1ccccc1)C(=O)N[C@@H](Cc1ccccc1)C(=O)N[C@@H](CC(C)C)C(=O)N[C@@H](Cc1ccccc1)C(=O)N[C@@H](CCCNC(=N)N)C(=O)N1CCC[C@H]1C(=O)N[C@@H](CCCNC(=N)N)C(=O)N[C@@H](CC(N)=O)C(N)=O)C(C)C)C(C)C [(Phe31]FN38] (H-FLFHYSKTQKLGKSNVVEELQSPFASQSRGFFLFRPRN-NH2; N-terminus assumed)
Food Intake Inhibition (NIH/Swiss mice): −64%
remaining at 5 h [1, 2]: 81%

CC(C)C[C@H](NC(=O)[C@H](Cc1ccccc1)NC(=O)[C@H](Cc1ccc(O)cc1)NC(=O)CN)C(=O)N[C@@H](Cc1ccccc1)C(=O)N[C@@H](CCCNC(=N)N)C(=O)N1CCC[C@H]1C(=O)N[C@@H](CCCNC(=N)N)C(=O)N[C@@H](CC(N)=O)C(N)=O [Compound 163357, reference compound] (H-GYFLFRPRN-NH2; N-terminus assumed)
activity in food intake assays (NIH/Swiss mice; doses up to 170 nmol/kg): inactive
FI (60′, 200) (NIH/Swiss mice): 26%

CC[C@H](C)[C@H](NC(=O)[C@@H](NC(=O)CNC(=O)CNC(=O)[C@@H]1CCCN1C(=O)[C@@H](NC(=O)[C@H](CCC(N)=O)NC(=O)[C@@H](NC(=O)[C@H](CCC(=O)O)NC(=O)[C@H](CCC(=O)O)NC(=O)[C@H](CC(=O)O)NC(=O)[C@H](CO)NC(=O)[C@H](CC(N)=O)NC(=O)[C@H](CO)NC(=O)[C@H](CCCCN)NC(=O)CNC(=O)[C@H](CC(C)C)NC(=O)[C@H](CCCCN)NC(=O)[C@H](CCC(N)=O)NC(=O)[C@@H](NC(=O)[C@H](CCCCN)NC(=O)[C@H](CO)NC(=O)[C@H](Cc1ccc(O)cc1)NC(=O)[C@H](Cc1c[nH]cn1)NC(=O)[C@H](Cc1ccccc1)NC(=O)[C@H](CC(C)C)NC(=O)[C@@H](N)Cc1ccccc1)[C@@H](C)O)C(C)C)C(C)C)C(C)C)C(=O)N[C@@H](CO)C(=O)N[C@@H](CC(N)=O)C(=O)NCC(N)=O [Compound 165061] (H-FLFHYSKTQKLGKSNSDEEVQVPGGVISNG-NH2; N-terminus assumed)
FI (60′, 200) (NIH/Swiss mice): 0%
remaining at 5 h [1, 3]: 57%

CC(C)C[C@H](NC(=O)[C@H](CCCCN)NC(=O)[C@H](CCC(N)=O)NC(=O)[C@@H](NC(=O)[C@H](CCCCN)NC(=O)[C@H](CO)NC(=O)[C@H](Cc1ccc(O)cc1)NC(=O)[C@H](Cc1c[nH]cn1)NC(=O)[C@H](Cc1ccccc1)NC(=O)[C@H](CC(C)C)NC(=O)[C@@H](N)Cc1ccccc1)[C@@H](C)O)C(=O)NCC(=O)N[C@@H](CCCCN)C(=O)N[C@@H](CO)C(=O)N[C@@H](CC(N)=O)C(=O)N[C@H](C(=O)N[C@H](C(=O)N[C@@H](CCC(=O)O)C(=O)N[C@@H](CCC(=O)O)C(=O)N[C@@H](CC(C)C)C(=O)N[C@@H](CCC(N)=O)C(=O)N[C@@H](CO)C(=O)N1CCC[C@H]1C(=O)N[C@@H](Cc1ccccc1)C(=O)N[C@@H](C)C(=O)N[C@@H](CO)C(=O)N[C@@H](CCC(N)=O)C(=O)N[C@@H](CO)C(=O)N[C@@H](CCCNC(=N)N)C(=O)NCC(N)=O)C(C)C)C(C)C [Compound 165062] (H-FLFHYSKTQKLGKSNVVEELQSPFASQSRG-NH2; N-terminus assumed)
FI (60′, 200) (NIH/Swiss mice): 0%
remaining at 5 h [1, 3]: 40%

CC(C)C[C@H](NC(=O)[C@H](Cc1ccccc1)NC(=O)[C@H](Cc1ccc(O)cc1)NC(=O)CNC(=O)[C@H](CO)NC(=O)[C@H](Cc1ccc(O)cc1)NC(=O)[C@H](Cc1c[nH]cn1)NC(=O)[C@H](Cc1ccccc1)NC(=O)[C@H](CC(C)C)NC(=O)[C@@H](N)Cc1ccccc1)C(=O)N[C@@H](Cc1ccccc1)C(=O)N[C@@H](CCCNC(=N)N)C(=O)N1CCC[C@H]1C(=O)N[C@@H](CCCNC(=N)N)C(=O)N[C@@H](CC(N)=O)C(N)=O [Des-(Lys7-Gly30)FN38 or FN15] (H-FLFHYSGYFLFRPRN-NH2; N-terminus and C-terminus assumed)
remaining at 5 h [1, 2]: 49%

CC(C)C[C@H](NC(=O)[C@H](CCCCN)NC(=O)[C@H](CCC(N)=O)NC(=O)[C@@H](NC(=O)[C@H](CCCCN)NC(=O)[C@H](CO)NC(=O)[C@H](Cc1ccc(O)cc1)NC(=O)[C@H](Cc1c[nH]cn1)NC(=O)[C@H](Cc1ccccc1)NC(=O)[C@H](CC(C)C)NC(=O)[C@@H](N)Cc1ccccc1)[C@@H](C)O)C(=O)NCC(=O)N[C@@H](CCCCN)C(=O)N[C@@H](CO)C(=O)N[C@@H](CC(N)=O)C(=O)N[C@H](C(=O)N[C@H](C(=O)N[C@@H](CCC(=O)O)C(=O)N[C@@H](CCC(=O)O)C(=O)N[C@@H](CC(C)C)C(=O)N[C@@H](CCC(N)=O)C(=O)N[C@@H](CO)C(=O)N1CCC[C@H]1C(=O)N[C@@H](Cc1ccccc1)C(=O)N[C@@H](C)C(=O)N[C@@H](CO)C(=O)N[C@@H](CCC(N)=O)C(=O)N[C@@H](CO)C(=O)N[C@@H](CCCNC(=N)N)C(=O)NCC(=O)N[C@@H](Cc1ccc(O)cc1)C(=O)N[C@@H](Cc1ccccc1)C(=O)N[C@H](C(=O)N[C@@H](Cc1ccccc1)C(=O)N[C@@H](CCCNC(=N)N)C(=O)N1CCC[C@H]1C(=O)N[C@@H](CCCNC(=N)N)C(=O)N[C@@H](CC(N)=O)C(N)=O)C(C)C)C(C)C)C(C)C [[Val33]FN38] (H-FLFHYSKTQKLGKSNVVEELQSPFASQSRGYFVFRPRN-NH2; N-terminus and C-terminus assumed)
remaining at 5 h [1, 2]: 82%
